Tests used:
[1] = test system: splenic GC B cells and Tfh cells; experiment: TNP-KLH immunization model, flow cytometry of spleen cells; assay type: in vivo, mouse; details: for reduction of mean absolute number of Tfh cells per spleen vs vehicle: day 12, not statistically significant
Description: Male CD1 mice (30–40 g, 8–9 weeks of age) were randomized into study treatment groups, housed individually and allowed to acclimatize under standard laboratory conditions for a minimum of 5 days prior to commencement of the study. Mice received food and water ad libitum. The experiment was performed in a certified dedicated in vivo experimental laboratory at the GlaxoSmithKline Medicines Research Centre, Stevenage, United Kingdom. The four treatment groups were (1) unimmunized and untreated (naive group) (n = 4); (2) intraperitoneal vehicle (n = 13), (3) GSK137 15 mg/kg (n = 14), and (4) GSK137 30 mg/kg (n = 14). Groups (2) to (4) were given intraperitoneal immunization with TNP–KLH (100 μg) on day 0, vehicle was 1% methylcellulose in water + 0.1% sodium lauryl sulphate, and compound or vehicle was given to groups (2) to (4) by oral gavage three times per day from day −1 to day +12. Blood samples were collected by tail vein for measurement of compound, IgM and IgG levels on days 0, 5, 8, and 12 ahead of immunization/first daily dose. On day 8, blood samples were also taken (n = 7) at 0.5, 1.5, 3, 5, or 7 h after first daily dose. On day 12, spleens were collected, weighed, and placed into Dulbecco's modified Eagle's medium on wet ice for analysis by flow cytometry.
For cell measurements, spleens were passed through a […] cell strainer, red blood cells were lysed, and cells were resuspended in medium, counted, and 1 × 10^6 cells plated for staining. Cells were washed in PBS and resuspended in 100 μl viability dye (diluted 1:1000 in PBS) for 15 min at room temperature. About 100 μl cell-staining buffer (CSB; BioLegend; catalog no. 420201) was added to each well before centrifugation and removal of supernatants, and cell pellets were resuspended in 100 μl relevant cocktail of antibodies (Table S2) for surface staining and incubated for 30 min at 4 °C. Cells were then washed in CSB and resuspended in 200 μl of FoxP3 fixation and permeabilization buffer for 30 min for staining of intracellular markers for 30 min. Cells were washed in PermWash buffer and resuspended in CSB (250 μl) before acquisition of a Cytek Aurora spectral cytometer (Cytek). Gating was carried out as shown (Figs. S1 and S2), and data were analyzed on FlowJo 10 (Becton Dickinson). Cell frequency was used to calculate an absolute cell number per tissue from the total live cell counts from whole homogenized spleen. Data were normalized against background GC and Tfh quantified in naive mice prior to performing percent inhibition calculations.
Single cell suspensions were generated by passing spleens through a 40 µM cell strainer into medium (RPMI 1640 supplemented with 2% fetal calf serum, 1% penicillin / streptomycin, 1% L-glutamine). Following centrifugation (400 g, 5 minutes, 4 °C) and removal of supernatants, red blood cells were lysed by incubation in 1 mL lysis buffer for 1 minute at room temperature. Cells were resuspended in medium, counted on a Nucleocounter NC3000 (Chemometec, Lillerød, Denmark) and 1x10^6 cells plated into 96-well polypropylene plates for staining. Cells were washed in 200 µL PBS and resuspended in 100 µL viability dye (diluted 1:1000 in PBS) for 15 minutes at room temperature. 100 µL cell staining buffer (CSB) (BioLegend, San Diego, CA, USA, #420201) was added to each well before centrifugation and removal of supernatants. Cell pellets were resuspended in 100 µL relevant cocktail of antibodies (see Tables S2 and S3) for surface staining and incubated for 30 minutes at 4 °C. Cells were washed in CSB and resuspended in 200 uL of FoxP3 fixation and permeabilisation buffer for 30 minutes in the dark at room temperature, washed and stained for intracellular markers for 30 minutes at room temperature. Cells were washed in Permwash and resuspended in CSB (250 µL) before acquisition on a Cytek Aurora spectral cytometer (Cytek, Fremont, CA, USA). […]

[2] = biological target: human serum albumin (HSA) (Homo sapiens, UniProt P02768); experiment: Binding to human serum albumin; assay type: in vitro ADME
Chain of human serum albumin (HSA) (P02768 25-609): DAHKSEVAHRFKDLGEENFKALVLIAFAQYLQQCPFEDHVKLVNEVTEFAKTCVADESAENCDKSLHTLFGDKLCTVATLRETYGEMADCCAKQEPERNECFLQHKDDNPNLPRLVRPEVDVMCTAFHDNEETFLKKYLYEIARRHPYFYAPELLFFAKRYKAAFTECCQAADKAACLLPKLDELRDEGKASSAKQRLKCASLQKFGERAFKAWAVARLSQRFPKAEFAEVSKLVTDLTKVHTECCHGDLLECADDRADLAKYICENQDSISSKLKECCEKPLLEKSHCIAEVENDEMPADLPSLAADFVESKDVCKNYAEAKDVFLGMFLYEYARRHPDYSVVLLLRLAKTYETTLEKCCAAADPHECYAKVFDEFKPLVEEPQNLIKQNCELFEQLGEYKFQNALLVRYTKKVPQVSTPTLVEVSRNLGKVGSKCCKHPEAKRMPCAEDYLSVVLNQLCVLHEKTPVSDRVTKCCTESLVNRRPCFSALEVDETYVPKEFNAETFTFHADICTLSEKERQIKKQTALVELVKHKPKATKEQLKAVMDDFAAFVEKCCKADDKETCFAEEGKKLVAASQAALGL

Question: With `Cc1ncccc1[C@H]1C[C@@H](c2cccc3nc(N)ccc23)Nc2c(F)cnn21` [GSK137, 5-((5S,7R)-3-Fluoro-7-(2-methylpyridin-3-yl)-4,5,6,7-tetrahydropyrazolo[1,5-a]pyrimidin-5-yl)quinolin-2-amine] as the compound, how does the “plasmablasts and plasma cells as a percentage of total viable cells vs vehicle” value ([1]; 15 mg/kg or 30 mg/kg, Fig. S6B) read?
Answer: no statistically significant reductions

Question: What about the “reduction of mean number of GC B cells per spleen vs vehicle” value ([1]; 15 mg/kg, day 12) of the same compound?
Answer: 53%

Question: What about the “reduction of mean absolute number of Tfh cells per spleen vs vehicle” value ([1]; 15 mg/kg) of the same compound?
Answer: 39%

Question: What about the “reduction of frequency of GC B cells within total splenic B cells vs vehicle” value ([1]; 15 mg/kg, day 12, p = 0.0058) of the same compound?
Answer: 61%

Question: And the “reduction of mean frequency of Tfh cells as fraction of splenic CD4+ T cells vs vehicle” value ([1]; 15 mg/kg, day 12, p = 0.014)?
Answer: 48%

Question: And the “reduction of mean absolute number of Tfh cells per spleen vs vehicle” value ([1]; 30 mg/kg)?
Answer: 34%

Question: What about the “reduction of frequency of GC B cells within total splenic B cells vs vehicle” value ([1]; 30 mg/kg, day 12, p = 0.0031) of the same compound?
Answer: 72%

Question: What about the “reduction of mean frequency of Tfh cells as fraction of splenic CD4+ T cells vs vehicle” value ([1]; 30 mg/kg, day 12, p = 0.0041) of the same compound?
Answer: 50%

Question: What about the “reduction of mean number of GC B cells per spleen vs vehicle” value ([1]; 30 mg/kg, day 12, p = 0.04) of the same compound?
Answer: 67%

Question: And the “number of plasmablasts and plasma cells (CD19+/intCD138+) in spleen vs vehicle” value ([1]; 15 and 30 mg/kg, after immunization)?
Answer: no statistically significant difference

Question: What about the “macrophage, dendritic cell and natural killer cell markers (CD11c, CD11b, CD161) vs vehicle” value ([1]; data not shown) of the same compound?
Answer: no difference

Question: And the “mean total CD4+ T-cell numbers per spleen” value ([1]; significant at 30 mg/kg (p = 0.032), not at 15 mg/kg)?
Answer: return mean CD4^+ T-cell numbers to levels observed in naive mice

Question: What about the HSA binding [2] of the same compound?
Answer: 91%
